The test concerns the target T1, LXRβ (Homo sapiens, UniProt P55055).
T1 construct: Co-transfection expression plasmids, comprising full-length LXRα (pCMX-h LXRα[…] or LXRβ (pCMX-hLXRβ)); expressed in transfected cells; host or cells: CV-1 African Green Monkey Kidney Cells
T1 sequence (P55055 1-460): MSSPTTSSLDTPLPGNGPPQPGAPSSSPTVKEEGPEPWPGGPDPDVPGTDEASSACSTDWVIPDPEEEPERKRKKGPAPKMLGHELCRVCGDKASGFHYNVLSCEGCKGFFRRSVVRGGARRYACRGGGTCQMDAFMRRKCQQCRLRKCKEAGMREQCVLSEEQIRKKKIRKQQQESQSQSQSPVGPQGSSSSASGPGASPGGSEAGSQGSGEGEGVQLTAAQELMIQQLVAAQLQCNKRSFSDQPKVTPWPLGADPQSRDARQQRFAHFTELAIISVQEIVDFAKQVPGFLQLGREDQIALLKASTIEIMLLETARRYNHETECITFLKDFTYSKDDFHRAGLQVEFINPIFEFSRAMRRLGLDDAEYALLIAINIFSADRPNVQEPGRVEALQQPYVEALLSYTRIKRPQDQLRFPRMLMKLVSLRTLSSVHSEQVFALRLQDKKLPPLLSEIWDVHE
T1 sequence (P19793 1-462 partner): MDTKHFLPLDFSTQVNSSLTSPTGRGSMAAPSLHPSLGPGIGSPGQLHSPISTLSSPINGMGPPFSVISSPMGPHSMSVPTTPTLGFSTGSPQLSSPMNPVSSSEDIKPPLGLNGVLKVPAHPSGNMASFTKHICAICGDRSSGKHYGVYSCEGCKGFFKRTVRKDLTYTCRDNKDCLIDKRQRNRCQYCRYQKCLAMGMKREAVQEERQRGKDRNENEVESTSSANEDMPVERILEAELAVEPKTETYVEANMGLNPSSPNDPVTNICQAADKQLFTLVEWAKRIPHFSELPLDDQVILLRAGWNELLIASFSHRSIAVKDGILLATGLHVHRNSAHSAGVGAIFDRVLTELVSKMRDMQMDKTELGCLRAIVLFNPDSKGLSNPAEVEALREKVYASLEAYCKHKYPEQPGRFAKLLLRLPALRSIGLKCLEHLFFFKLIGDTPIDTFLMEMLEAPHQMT
The test is described as follows: Co-transfection assay (LXRE luciferase reporter), LXRβ. The class given is cell-based. The following applies: for EC50: CV-1 cells transfected with pCMX-hLXRβ and LXREx1-Tk-Luciferase, 20 hours incubation; for Emax: LXRβ co-transfection, relative to high control 1-(2,4-difluorobenzyl)-2-oxo-6-(4-phenoxyphenyl)-4-(trifluoromethyl)-1,2-dihydropyridine-3-carbonitrile, read-out: % Efficacy. The essentials: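 CV-1 cells transiently co-transfected with full-length human LXRβ (or LXRα), LXREx1-Tk-luciferase reporter and β-galactosidase control; compound added (10 μM final in single-point, 11-point ½-log curves, ≤0.5% DMSO) for 20 h at 37 °C. Luciferase read; EC50 from four-parameter fit, efficacy relative to reference agonist high control.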
(A reporter such as luciferase makes a cellular process visible.)

Broadly, the EC50 is the concentration giving half of the maximal effect. Higher therefore signals lower potency in that assay. Consider `Cc1nc(C(F)(F)F)cn1-c1c(F)cc(-c2cccc(S(=O)(=O)N3CCCC3)c2)cc1-n1nncc1-c1ccc(OC(F)(F)F)cc1` [Example 199, 1-{5-fluoro-4-[2-methyl-4-(trifluoromethyl)-1H-imidazol-1-yl]-3′-(pyrrolidin-1-ylsulfonyl)biphenyl-3-yl}-5-{4-[(trifluoromethyl)oxy]phenyl}-1H-1,2,3-triazole], for which it took 384 nM to reach a half-maximal effect (EC50) and the Emax was 66%.

With `Cc1nc(C(F)(F)F)cn1-c1c(F)cc(-c2cc(F)c(CO)c(S(C)(=O)=O)c2)cc1-n1nncc1-c1ccc(Cl)cc1Cl` [Example 200, {3′-[5-(2,4-dichlorophenyl)-1H-1,2,3-triazol-1-yl]-3,5′-difluoro-5-(methylsulfonyl)-4′-[2-methyl-4-(trifluoromethyl)-1H-imidazol-1-yl]biphenyl-4-yl}methanol], it took 74 nM to reach a half-maximal effect (EC50) and the Emax stood at 83%.

On to `Cc1nc(C(F)(F)F)cn1-c1c(F)cc(-c2cccc(S(C)(=O)=O)c2)cc1-n1nncc1-c1ccc(OC(F)(F)F)cc1` [Example 201, 1-{5-fluoro-3′-(methylsulfonyl)-4-[2-methyl-4-(trifluoromethyl)-1H-imidazol-1-yl]biphenyl-3-yl}-5-{4-[(trifluoromethyl)oxy]phenyl)-1H-1,2,3-triazole], for which the midpoint of the response, the EC50, lay at 127 nM and the Emax is 81%.

For `Cc1nc(C(F)(F)F)cn1-c1c(F)cc(-c2cc(F)c(CO)c(S(C)(=O)=O)c2)cc1-n1nncc1-c1ccc(OC(F)(F)F)cc1` [Example 202, [3,3′-difluoro-5-(methylsulfonyl)-4′-[2-methyl-4-(trifluoromethyl)-1H-imidazol-1-yl]-5′-(5-{4-[(trifluoromethyl)oxy]phenyl)-1H-1,2,3-triazol-1-yl)biphenyl-4-yl]methanol], the EC50 stood at 106 nM and the Emax amounted to 77%.

With `Cc1nc(C(F)(F)F)cn1-c1c(F)cc(-c2ccc(CO)c(S(C)(=O)=O)c2)cc1-n1nncc1-c1ccc(OC(F)(F)F)cc1` [Example 203, [3′-fluoro-3-(methylsulfonyl)-4′-[2-methyl-4-(trifluoromethyl)-1H-imidazol-1-yl]-5′-(5-{4-[(trifluoromethyl)oxy]phenyl}-1H-1,2,3-triazol-1-yl)biphenyl-4-yl]methanol], the EC50 was found to be 127 nM and the Emax amounted to 71%.

In the case of `Cc1nc(C(F)(F)F)cn1-c1c(F)cc(-c2cccc(S(C)(=O)=O)c2)cc1-n1nncc1-c1ccc(Cl)cc1` [Example 204, 5-(4-chlorophenyl)-1-{5-fluoro-3′-(methylsulfonyl)-4-[2-methyl-4-(trifluoromethyl)-1H-imidazol-1-yl]biphenyl-3-yl}-1H-1,2,3-triazole], the EC50 is 110 nM and the Emax stood at 97%.

Regarding `CNS(=O)(=O)c1cccc(-c2cc(F)c(-n3cc(C(F)(F)F)nc3C)c(-n3nncc3-c3ccc(OC(F)(F)F)cc3)c2)c1` [Example 205, 3′-fluoro-N-methyl-4′-[2-methyl-4-(trifluoromethyl)-1H-imidazol-1-yl]-5′-(5-{4-[(trifluoromethyl)oxy]phenyl}-1H-1,2,3-triazol-1-yl)biphenyl-3-sulfonamide], the EC50 was determined as 111 nM and the Emax is 85%.

`COCc1c(F)cc(-c2cc(F)c(-n3cc(C(F)(F)F)nc3C)c(-n3nncc3-c3ccc(OC(F)(F)F)cc3)c2)cc1S(C)(=O)=O` [Example 206, 1-{3′,5-difluoro-4′-[(methyloxy)methyl]-5′-(methylsulfonyl)-4-[2-methyl-4-(trifluoromethyl)-1H-imidazol-1-yl]biphenyl-3-yl}-5-{4-[(trifluoromethyl)oxy]phenyl}-1H-1,2,3-triazole]: a half-maximal effect (EC50) was put at 88 nM and the Emax amounted to 95%.

The values are drawn from patent publication US9834542B2, “LXR modulators” (BRISTOL-MYERS SQUIBB COMPANY, priority 2013, dated 2017).
